The target of data set [1] is T1, HIV-1 reverse transcriptase (Human immunodeficiency virus type 1 group M subtype B, UniProt P04585).
T1 construct: virion associated HIV-1 IIIB reverse transcriptase; endogenous in cells; host or cells: HIV-1 IIIB virions lysed in Triton X-100
Put plainly: HIV-1 reverse transcriptase assay. As to conditions: Table 1; inhibit 50% of HIV-1 RT activity; read-out: HIV-RT Assay IC50. The class given is biochemical, HIV-1 IIIB. The method, then: Ten microliters of virion associated HIV-1 IIIB reverse transcriptase in 1% Triton X-100 was mixed with 50 microliters of a reaction cocktail containing 50 mM Tri-HCl (pH 7.8), 75 mM KCl, 2 mM dithiothreitol, 5 mM MgCl2, 5 mg/ml poly (A) [Pharmacia], 0.25 unit/ml oligo(dT)[Pharmacia]; 0.05% Nonidet P40 and 10 mCi/ml ^32 P-dTTP in the presence of various concentrations of test compound. After incubating for one hour at 37° C., 40 microliters of the reaction mixture was applied to a Schleicher & Schuell NA 45 membrane saturated with […] (0.3M NaCl, 30 mM sodium citrate, pH 7.0) in a Schleicher & Schuell Minifold over one sheet of GB003 filter paper. Each well of the minifold was washed four times with 2×SSC. Autoradiography was performed, and radioactivity was quantified with a Packard Matrix (Meriden, Conn.) 9600 direct beta counter.

For data set [2], the system named is HIV-1. Put plainly: HIV-1 replication in PHA-stimulated PBMCs (p24 antigen ELISA). Type of data set: cell-based, HIV-1 (IIIB isolate). As to conditions: for EC50: Human immunodeficiency virus 1, PBMC. More on the design: TI50: unit not given beside the values. The method, then: The T cell line, H9, and the promonocytic cell line, U937, were maintained separately in continuous culture with complete medium (RPMI 1640 with 10% fetal calf serum) at 5% CO2 and 37° C. The cell lines were used in experiments only when in the logarithmic phase of growth, whereas uninfected peripheral blood mononuclear cells (PBMCs) were first stimulated with PHA (1 μg/mL) for three days. All cell targets were incubated with HIV-1 (IIIB isolate, TCID50 10^4 IU/ml, at a multiplicity of infection of 0.01-0.01 IU/cell) for one hour at 37° C. and 5% CO2. The cell lines and PBMCs were washed thoroughly to remove unadsorbed virions and resuspended at 4×10^5 cells/ml in complete medium or complete medium with 10% v/v interleukin 2 (IL-2), respectively. One ml. aliquots were placed into wells of 24-well culture plates containing an equal volume of test compounds (diluted in the appropriate culture medium). The toxicity of each compound was assessed by determining the number of compound-exposed uninfected cells that remained after four days at 37° C. and 5% CO2. A p24 antigen ELISA assay was used to determine the level of virus released in the medium of the HIV-infected cultures. The p24 antigen assay used a HIV-1 anti-p24 specific monoclonal antibody as the capture antibody coated onto 96-well plates. Following a sample incubation period, rabbit serum containing antibodies for HIV-1 p24 was used to tag any p24 "captured: onto the microtiter well surface. Peroxidase conjugated goat anti-rabbit serum was then used to tag HIV-1 p24 specific rabbit antibodies that had complexed with captured p24. […] The cutoff for the p24 ELISA assay was 12.5 pg/ml. P24 in the culture medium was quantitated against a standard curve containing known amounts of p24. The effective (EC50) and inhibitory (IC50) concentrations for anti-HIV activity and cytotoxicity, respectively, were determined.
In general terms: An ELISA detects its analyte on a solid surface through an enzyme-linked reagent.

In data set [3] the test system is HIV induced membrane fusion. Put plainly: cells. As to conditions: Human immunodeficiency virus 1, CEM-4, 24 h, read-out: Fusion Assay IC100. Type of data set: cell-based, HIV-1LAI. How it is done: MOLT-4 cells (7×10^4) were incubated with HIV-1LAI chronically infected CEM cells (10^4) in 96-well half-area flat-bottomed plates (Costar) in 100 microliters culture medium were incubated with the cell mixtures at 37° C. for 24 hours. Multinucleated syncytia were enumerated by microscopic examination of the entire contents of each well.

The subject of data set [4] is HIV-1. In words: HIV-1 replication in acutely infected H9 lymphocytes (p24 antigen ELISA). The class given is cell-based, HIV-1 (IIIB isolate). How it is done: The cell lines were used in experiments only when in the logarithmic phase of growth, whereas uninfected peripheral blood mononuclear cells (PBMCs) were first stimulated with PHA (1 μg/mL) for three days. […] The cell lines and PBMCs were washed thoroughly to remove unadsorbed virions and resuspended at 4×10^5 cells/ml in complete medium or complete medium with 10% v/v interleukin 2 (IL-2), respectively. One ml. aliquots were placed into wells of 24-well culture plates containing an equal volume of test compounds (diluted in the appropriate culture medium). The toxicity of each compound was assessed by determining the number of compound-exposed uninfected cells that remained after four days at 37° C. and 5% CO2. A p24 antigen ELISA assay was used to determine the level of virus released in the medium of the HIV-infected cultures. The p24 antigen assay used a HIV-1 anti-p24 specific monoclonal antibody as the capture antibody coated onto 96-well plates. […] P24 in the culture medium was quantitated against a standard curve containing known amounts of p24. The effective (EC50) and inhibitory (IC50) concentrations for anti-HIV activity and cytotoxicity, respectively, were determined.
^a Concentration which inhibits viral replication in H9 cells by 50%

Data set [5] has as its system cells of the fusion assay. Put plainly: Cytotoxicity noted in the fusion assay. As to conditions: Table 1 footnotes; one-day fusion assay. Type of data set: cell-based. How it is done: Cell fusions were performed as described in Matthews et al., Proc. Natl. Acad. Sci. USA, 1987, 84, 5424-5428. MOLT-4 cells (7×10^4) were incubated with HIV-1LAI chronically infected CEM cells (10^4) in 96-well half-area flat-bottomed plates (Costar) in 100 microliters culture medium were incubated with the cell mixtures at 37° C. for 24 hours. Multinucleated syncytia were enumerated by microscopic examination of the entire contents of each well.
^d No noticeable cytotoxicity at 100 μg/mL
^e Toxic to the cells at 80 μg/mL in oneday fusion assay
^f Toxic at 40 μg/mL under the assay conditions

The test system of data set [6] is HIV-induced membrane fusion. Particulars: cited from earlier work.
For data set [7], the system named is HIV-induced membrane fusion. In words: Inhibition of HIV-induced membrane fusion / syncytia formation reported in the literature. Type of data set: cell-based. As to conditions: versus compounds 2-5 or 8-10; CEM4 here, H9 in the literature.
The next data set relates to HIV-1 RT. Particulars: Table 1 footnote h: data from reference 8; cited from earlier work.
Data set [8] deals with HIV-1. As to conditions: Table 1 footnote h: data from reference 8; cited from earlier work.

Where two headings read alike, the source gives them in different places.

As usually defined, the IC50 is the point on the concentration scale where inhibition reaches its midpoint. The term EC50 denotes the midpoint of the concentration-response curve. `CC(C)[C@@H]1CC[C@]2(C(=O)O)CC[C@]3(C)[C@H](CC[C@@H]4[C@@]5(C)CC[C@H](OC(=O)CC(C)(C)CC(=O)O)C(C)(C)[C@@H]5CC[C@]43C)[C@@H]12` [Compound 9, 3-O-(3',3'-dimethylglutaryl)-dihydrobetulinic acid]: in data set [1], the IC50 is more than 166000 nM. Moreover, the EC50 with HIV-1 [2] was found to be 0.0175 µg/mL; in the data set on HIV-1 [2] (PHA-stimulated PBMCs, read-out: EC50), 29.2 nM; in the data set on HIV-1 [4] (Human immunodeficiency virus 1, H9, Table 1, inhibits viral replication in H9 cells by 50%, read-out: EC50), 5.7 nM. Besides, in the data set on HIV-1 [2] (PBMCs versus H9 cells), the “T.I. values in PBMCs compared with H9 cells” value is “lower than those in H9 cells”. In the data set on HIV-1 [2] (Table 2, PBMCs), this compound returned a TI50 of 229. The IC100 in data set [3] was 20 µg/mL. Moreover, the T.I. with HIV-1 [4] (Table 1, H9 cells, therapeutic index) is recorded as 1,017.0. The “cytotoxicity in fusion assay (footnotes d, e, f)” value in data set [5] is listed as “f (Toxic at 40 μg/mL under the assay conditions)”.
Turning to `C=C(C)[C@@H]1CC[C@]2(C(=O)NCCCCCCCC(=O)N[C@@H](CC(C)C)[C@@H](O)CC(=O)O)CC[C@]3(C)[C@H](CC[C@@H]4[C@@]5(C)CC[C@H](O)C(C)(C)[C@@H]5CC[C@]43C)[C@@H]12` [Compound 12], the “Fusion Assay IC100” value in data set [6] (Table 1 footnote h: data from reference 8) is 3 µg/mL. Besides, the inhibit syncytia formation in [6] (reported in the literature, H9 cell line) was 3 µg/mL. In addition, in [7], the “potency in inhibiting syncytia formation relative to compounds 2-5 or 8-10” value is reported as “approximately ten”. The “HIV-RT Assay IC50” value with HIV-1 RT is given as “No Inhibition”. In addition, in the data set on HIV-1 [8], the EC50 is 30 nM and the T.I. was more than 90.

Values taken from patent publication US5679828A (priority 1995, dated 1997).
